According to patent US7786136B2, “Indazole-carboxamide compounds” (Theravance, Inc., priority 2004, dated 2010):

Experiment: Pharmacokinetic study in the rat
Type: in vivo
Method: Pharmacokinetic Study in the Rat
Aqueous solution formulations of test compounds were prepared in 0.1% lactic acid at a pH of between about 5 and about 6. Male Sprague-Dawley rats (CD strain, Charles River Laboratories, Wilmington, Mass.) were dosed with test compounds via intravenous administration (IV) at a dose of 2.5 mg/kg or by oral gavage (PO) at a dose of 5 mg/kg. The dosing volume was 1 mL/kg for IV and 2 mL/kg for PO administration. Serial blood samples were collected from animals pre-dose, and at 2 (IV only), 5, 15, and 30 min, and at 1, 2, 4, 8, and 24 hours post-dose. Concentrations of test compounds in blood plasma were determined by liquid chromatography-mass spectrometry analysis (LC-MS/MS) (MDS SCIEX, API 4000, Applied Biosystems, Foster City, Calif.) with a lower limit of quantitation of 1 ng/mL.
Standard pharmacokinetic parameters were assessed by non-compartmental analysis (Model 201 for IV and Model 200 for PO) using WinNonlin (Version 4.0.1, Pharsight, Mountain View, Calif.). The maximum in the curve of test compound concentration in blood plasma vs. time is denoted Cmax. The area under the concentration vs. time curve from the time of dosing to the last measurable concentration (AUC(0-t)) was calculated by the linear trapezoidal rule. Oral bioavailability (F(%)), i.e. the dose-normalized ratio of AUC(0-t) for PO administration to AUC(0-t) for IV administration, was calculated as: F(%)=AUCPO/AUCIV×DoseIV/DosePO×100%

[1] = male Sprague-Dawley rats, blood plasma, IV 2.5 mg/kg or PO 5 mg/kg

## CC(C)n1nc(C(=O)N[C@H]2C[C@H]3CC[C@@H](C2)N3CC(O)CN2CCN(C(=O)C3CCCO3)CC2)c2ccccc21 (stereo partly drawn) [Example 2, 1-isopropyl-1H-indazole-3-carboxylic acid((1S,3R,5R)-8-{2-hydroxy-3-[4-(tetrahydrofuran-2-carbonyl)piperazin-1-yl]propyl}-8-aza-bicyclo[3.2.1]oct-3-yl)amide]
[1]
  AUC(0-t): 0.427 µg·h/mL
  Cmax: 0.055 µg/mL
rat, dose-normalized AUC(0-t) PO 5 mg/kg vs IV 2.5 mg/kg
  oral bioavailability (F(%)): about 30%
